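Interpolation was linear, between the two tested concentrations surrounding the appropriate level; five concentrations were tested over 48 hours in 96-well plates. At the GI50, growth is halved.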 The source made the active and inactive calls. Rule as the data show it: active = GI50 up to about 1.1 µM and inactive = higher.
Experiments:
Test in all cases: growth of human tumour cells (NCI), 48 h
786-0 = system: 786-0
A498 = system: A498
A549 = system: A549
ACHN = system: ACHN
BT-549 = system: BT-549
CAKI-1 = system: CAKI-1
CCRF-CEM = system: CCRF-CEM
COLO 205 = system: COLO 205
DU-145 = system: DU-145
EKVX = system: EKVX
HCC 2998 = system: HCC 2998
HCT-116 = system: HCT-116
HCT-15 = system: HCT-15
HL-60 = system: HL-60
HOP-62 = system: HOP-62
HOP-92 = system: HOP-92
HT-29 = system: HT-29
Hs-578T = system: Hs-578T
IGROV-1 = system: IGROV-1
K562 = system: K562
KM12 = system: KM12
LOX IMVI = system: LOX IMVI
M14 = system: M14
MCF7 = system: MCF7
MDA-MB-231 = system: MDA-MB-231
MDA-MB-435 = system: MDA-MB-435
MDA-N = system: MDA-N
MOLT-4 = system: MOLT-4
NCI-H226 = system: NCI-H226
NCI-H23 = system: NCI-H23
NCI-H460 = system: NCI-H460
NCI-H522 = system: NCI-H522
NCI/ADR-RES = system: NCI/ADR-RES
OVCAR-3 = system: OVCAR-3
OVCAR-4 = system: OVCAR-4
OVCAR-5 = system: OVCAR-5
OVCAR-8 = system: OVCAR-8
PC-3 = system: PC-3
RPMI-8226 = system: RPMI-8226
RXF 393 = system: RXF 393
SF-268 = system: SF-268
SF-295 = system: SF-295
SF-539 = system: SF-539
SK-MEL-2 = system: SK-MEL-2
SK-MEL-5 = system: SK-MEL-5
SK-OV-3 = system: SK-OV-3
SN12C = system: SN12C
SNB-19 = system: SNB-19
SNB-75 = system: SNB-75
SW-620 = system: SW-620
T47D = system: T47D
TK-10 = system: TK-10
U-251 = system: U-251
UACC-257 = system: UACC-257
UACC-62 = system: UACC-62
UO-31 = system: UO-31

O=[N+]([O-])c1cccc(-c2csc(N/N=C3\NC/C(=C/c4ccc5c(c4)OCO5)S3)n2)c1
GI50 (786-0): 38.4 µM (inactive)
GI50 (A498): 15.2 µM (inactive)
GI50 (A549): 39.4 µM (inactive)
GI50 (ACHN): 28.9 µM (inactive)
GI50 (BT-549): 25.1 µM (inactive)
GI50 (CAKI-1): 38.4 µM (inactive)
GI50 (CCRF-CEM): 35.4 µM (inactive)
GI50 (COLO 205): 28.4 µM (inactive)
GI50 (DU-145): 33.8 µM (inactive)
GI50 (EKVX): 9.02 µM (inactive)
GI50 (HCC 2998): 31.9 µM (inactive)
GI50 (HCT-116): 30.6 µM (inactive)
GI50 (HCT-15): 35.7 µM
GI50 (HL-60): 26.6 µM (inactive)
GI50 (HOP-62): 25.2 µM (inactive)
GI50 (HOP-92): 16.1 µM (inactive)
GI50 (HT-29): 22.4 µM (inactive)
GI50 (Hs-578T): 24.2 µM (inactive)
GI50 (IGROV-1): 21 µM (inactive)
GI50 (K562): 38.3 µM (inactive)
GI50 (KM12): 12.9 µM (inactive)
GI50 (LOX IMVI): 50.7 µM (inactive)
GI50 (M14): 23.3 µM (inactive)
GI50 (MCF7): 33.7 µM (inactive)
GI50 (MDA-MB-231): 35.1 µM (inactive)
GI50 (MDA-MB-435): 40.2 µM (inactive)
GI50 (MDA-N): 30.4 µM (inactive)
GI50 (MOLT-4): 34.4 µM (inactive)
GI50 (NCI-H226): 16.6 µM (inactive)
GI50 (NCI-H23): 20.1 µM (inactive)
GI50 (NCI-H460): 33.5 µM (inactive)
GI50 (NCI-H522): 18.2 µM (inactive)
GI50 (NCI/ADR-RES): 19.6 µM (inactive)
GI50 (OVCAR-3): 30.3 µM (inactive)
GI50 (OVCAR-4): 27.9 µM (inactive)
GI50 (OVCAR-5): 28.4 µM (inactive)
GI50 (OVCAR-8): 14.3 µM (inactive)
GI50 (PC-3): 21.5 µM (inactive)
GI50 (RPMI-8226): 37.7 µM (inactive)
GI50 (RXF 393): 22.6 µM (inactive)
GI50 (SF-268): 23.3 µM (inactive)
GI50 (SF-295): 35 µM (inactive)
GI50 (SF-539): 40.8 µM (inactive)
GI50 (SK-MEL-2): 22.1 µM (inactive)
GI50 (SK-MEL-5): 17.3 µM (inactive)
GI50 (SK-OV-3): 26.8 µM (inactive)
GI50 (SN12C): 37.2 µM (inactive)
GI50 (SNB-19): 20.5 µM (inactive)
GI50 (SNB-75): 15.4 µM (inactive)
GI50 (SW-620): 34 µM (inactive)
GI50 (T47D): 29.9 µM (inactive)
GI50 (TK-10): 32.2 µM (inactive)
GI50 (U-251): 33.4 µM (inactive)
GI50 (UACC-257): 35.9 µM (inactive)
GI50 (UACC-62): 18.8 µM (inactive)
GI50 (UO-31): 25.9 µM (inactive)
